# Measurements: ChEMBL document CHEMBL5230110, “FabI (enoyl acyl carrier protein reductase) - A potential broad spectrum therapeutic target and its inhibitors” (Eur J Med Chem, 2020)
# Biological target: Enoyl-[acyl-carrier-protein] reductase [NADH] (Mycobacterium tuberculosis, UniProt P9WGR1, S94A)
compound,measurement,value
Oc1cc2ccc1Oc1ccc(cc1)CCc1ccc(c(O)c1)Oc1ccc(cc1)CC2,IC50,4.7 µM
